This assay has as its system PANK2 silenced human neuroblastoma IMR32 cells (PANK2−/−). In words: Coenzyme A assay in PANK2 silenced cells (LC-MS quantification of free CoA). The class given is cell-based. The note with it: compound added twice (24 h + 24 h), relative to 0.1% DMSO controls. How it is done: A human neuroblastoma IMR32 cell line (ATCC) with stably PANK2 silencing was obtained by lentiviral-delivered small hairpin RNA and cultured in MEM (Invitrogen) supplemented with 10% fetal bovine serum, 2 mM glutamine, 1% penicillin-streptomycin, 1 mM sodium pyruvate, 1 mM non essential amino acids and 1.5 g/l sodium bicarbonate.
For lentiviral shRNA expression, Human Emryonic Kidney HEK-293T cells (ATCC) were transfected with the appropriate pGFP-Lenti-shRNA constructs and packaging plasmids according to manufacturer's protocol (Origene Technologies, Inc.). Four different gene-specific shRNA expression vectors designed against multiple splice variants of PANK2 (Gene ID 80025) were used for transfection. A non-silencing shRNA construct (scrambled shRNA) and an empty vector expressing GFP alone were used as negative controls. The GFP tag subcloned into the lentiviral vectors was used to monitor the transfection efficiency.
IMR32 cells were plated on 150 cm dishes 48 h before transduction with lentiviral particles.
Three days after transduction medium was removed and replaced with fresh medium containing […] puromycin. Medium was replaced every 48 h. Levels of PANK2 expression on selected clones was assessed by Western Blot analysis.
To quantify CoA, PANK2^−/− IMR32 cells were plated on 12-well culture plates (Corning) at a density of 0.2×10^6 cells per well. After 72 h, compounds were freshly dissolved in DMSO and added to the culture medium to yield a final solvent concentration of 0.1% (v/v). Controls with medium containing 0.1% DMSO without test compounds were also included in each plate. Compound treated cells were incubated for 24 h at 37° C. Treatment was repeated after 24 h with newly dissolved compound and cells were further incubated at 37° C. for additional 24 h. Before LC-MS analysis of CoA levels, cells were harvested, counted, and collected in a 15 ml falcon tube and centrifuged at 200×g for 5 min at 4° C. Supernatant was removed and cell pellet was washed in 10 ml of ice-cold PBS. To further confirm that the numbers of cells in each sample were equivalent, an equal fraction of pellet was collected from each sample and subjected to protein determination analysis. After centrifugation and supernatant removal, the cell pellet was rapidly frozen in Liquid Nitrogen and stored at −80° C. until analysis.
Intracellular CoA levels were calculated considering an intracellular volume of 1 million cells=2 μl.
The 1×10^6 cellular pellet was extracted with 120 μl of aqueous 20% TFA. This solution was stirred for 2 min, sonicated in ultrasonic bath for 2 min, then stirred again for 1 min, and centrifuged for 15 min at 14000 g and at 4° C.
100 μL samples of supernatant were dried under N2 at 20° C. in the dark.
Samples were re-dissolved in 100 μl of 10 mM NH4^+ AcO^− buffer pH 5.1+IS (Dextrorphan 50 ng/ml), stirred for 2 min, sonicated in ultrasonic bath for 1 min, then stirred again for 1 min, and injected into LC-MS.
LC-MS/MS was performed using an Agilent HPLC (1100 Series, USA). The LC system was interfaced with an API-4000 Q-Trap triple quadrupole mass spectrometer (AB Sciex, Toronto, Canada) equipped with a TurbolonSpray ionization source operating in positive ion mode. Analyst™ software version 1.6 (AB Sciex, Toronto, Canada) was used for data acquisition and processing. CoA was separated using a Luna C18 column (2.0×50 mm; 5 μm particle size), column at 25° C. and flow rate of 0.2 ml/min. Injection volume was 15 μl. The mobile phases consisted of water containing 10 mM ammonium acetate pH 7 (mobile phase A) and MeCN-2-propanol 9:1 (mobile phase B). Elution was performed using a gradient starting at 2% B, holding at 2% B until 0.1 min, increasing to 98% B at 3.2 min, holding at 98% B until 4.5 min, returning to 2% B at 4.6 min and holding at 2% B until 7.5 min. Precursor ions and MRM transitions used were: CoA m/z 768.1→261.6 and 768.1→136.1. […]

For the compound `COC(=O)CCNC(=O)[C@@H]1OP(=O)(Oc2ccc([N+](=O)[O-])cc2)OCC1(C)C` (stereo partly drawn) [Compound No. 2-134, Methyl 3-((4R)-5,5-dimethyl-2-(4-nitrophenoxy)-2-oxido-1,3,2-dioxaphosphinane-4-carboxamido)propanoate], the “PANK2−/− CoA (Fold Increase): fold increase in Coenzyme A (CoA) levels relative to controls” value turned out to be 5.37 Fold Increase.
`COC(=O)CCNC(=O)[C@@H]1OP(=O)(OCOC(=O)NCCSC(=O)[C@@H](NC(=O)OCc2ccccc2)C(C)C)OCC1(C)C` (stereo partly drawn) [2-175, methyl 3-((4R)-2-(((S)-9-isopropyl-3,8,11-trioxo-13-phenyl-2,12-dioxa-7-thia-4,10-diazatridecyl)oxy)-5,5-dimethyl-2-oxido-1,3,2-dioxaphosphinane-4-carboxamido)propanoate]: the “PANK2−/− CoA (Fold Increase): fold increase in Coenzyme A (CoA) levels relative to controls” value was determined as 9.31 Fold Increase.
`COC(=O)CCNC(=O)[C@@H]1O[P@@](=O)(OCOC(=O)c2ccnn2C)OCC1(C)C` [2-184, (((2S,4R)-4-((3-methoxy-3-oxopropyl)carbamoyl)-5,5-dimethyl-2-oxido-1,3,2-dioxaphosphinan-2-yl)oxy)methyl 1-methyl-1H-pyrazole-5-carboxylate]: the “PANK2−/− CoA (Fold Increase): fold increase in Coenzyme A (CoA) levels relative to controls” value is listed as 21.67 Fold Increase.
For `COC(=O)CCNC(=O)[C@@H]1O[P@](=O)(OCOC(=O)c2ccnn2C)OCC1(C)C` [2-185, (((2R,4R)-4-((3-methoxy-3-oxopropyl)carbamoyl)-5,5-dimethyl-2-oxido-1,3,2-dioxaphosphinan-2-yl)oxy)methyl 1-methyl-1H-pyrazole-5-carboxylate], the “PANK2−/− CoA (Fold Increase): fold increase in Coenzyme A (CoA) levels relative to controls” value amounted to 114.15 Fold Increase.
Take `COC(=O)CCNC(=O)[C@@H]1O[P@](=O)(Oc2ccc([N+](=O)[O-])cc2)OCC1(C)C` (single isomer, unassigned) [Compound No. 2-120]: the “PANK2−/− CoA (Fold Increase): fold increase in Coenzyme A (CoA) levels relative to controls” value is 21.05 Fold Increase.
In the case of `COC(=O)CCNC(=O)[C@@H]1OP(=O)(OCCN2CCOCC2=O)OCC1(C)C` (stereo partly drawn) [2-114, methyl 3-((4R)-5,5-dimethyl-2-oxido-2-(2-(3-oxomorpholino)ethoxy)-1,3,2-dioxaphosphinane-4-carboxamido)propanoate], the “PANK2−/− CoA (Fold Increase): fold increase in Coenzyme A (CoA) levels relative to controls” value was 1.87 Fold Increase.
As for `COC(=O)CCNC(=O)[C@@H]1O[P@@](=O)(OCCNC(C)=O)OCC1(C)C` [2-115, methyl 3-((2R,4R)-2-(2-acetamidoethoxy)-5,5-dimethyl-2-oxido-1,3,2-dioxaphosphinane-4-carboxamido)propanoate], the “PANK2−/− CoA (Fold Increase): fold increase in Coenzyme A (CoA) levels relative to controls” value is on record as 1.6 Fold Increase.
As for `COC(=O)CCNC(=O)[C@@H]1OP(=O)(OCOC(=O)NCCSC(C)=O)OCC1(C)C` (stereo partly drawn) [2-136, methyl 3-((4R)-2-((((2-(acetylthio)ethyl)carbamoyl)oxy)methoxy)-5,5-dimethyl-2-oxido-1,3,2-dioxaphosphinane-4-carboxamido)propanoate], the figure is 1.41 Fold Increase.
Turning to `COC(=O)CCNC(=O)[C@@H]1OP(=O)(Oc2ccc(C(F)(F)F)nc2)OCC1(C)C` (stereo partly drawn) [2-122, methyl 3-((4R)-5,5-dimethyl-2-oxido-2-((6-(trifluoromethyl)pyridin-3-yl)oxy)-1,3,2-dioxaphosphinane-4-carboxamido)propanoate], the “PANK2−/− CoA (Fold Increase): fold increase in Coenzyme A (CoA) levels relative to controls” value came to 1.21 Fold Increase.
Consider `COC(=O)CCNC(=O)[C@@H]1O[P@](=O)(Oc2ccc(C[C@H](N)C(=O)OC)cc2)OCC1(C)C` [2-163, Methyl (S)-2-amino-3-(4-(((2R,4R)-4-((3-methoxy-3-oxopropyl)carbamoyl)-5,5-dimethyl-2-oxido-1,3,2-dioxaphosphinan-2-yl)oxy)phenyl)propanoate], for which the “PANK2−/− CoA (Fold Increase): fold increase in Coenzyme A (CoA) levels relative to controls” value was determined as 81.21 Fold Increase.
As for `COC(=O)CCNC(=O)[C@@H]1O[P@](=O)(Oc2ccc(C#N)cc2)OCC1(C)C` [2-165, methyl 3-((2R,4R)-2-(4-cyanophenoxy)-5,5-dimethyl-2-oxido-1,3,2-dioxaphosphinane-4-carboxamido)propanoate], the figure is 6.87 Fold Increase; as for `CC(C)OC(=O)OCOP1(=O)OCC(C)(C)[C@H](C(=O)NCCC(=O)O)O1` (stereo partly drawn) [Compound No. 104, 3-((4R)-2-(((isopropoxycarbonyl)oxy)methoxy)-5,5-dimethyl-2-oxido-1,3,2-dioxaphosphinane-4-carboxamido)propanoic acid], 75.24 Fold Increase; as for `COC(=O)CCNC(=O)[C@@H]1O[P@](=O)(OCC(F)(F)F)OCC1(C)C` [2-123, methyl 3-((2S,4R)-5,5-dimethyl-2-oxido-2-(2,2,2-trifluoroethoxy)-1,3,2-dioxaphosphinane-4-carboxamido)propanoate], 1.46 Fold Increase.
Consider `COC(=O)CCNC(=O)[C@@H]1OP(=O)(OCOC(=O)N[C@@H](CSC(=O)C(C)(C)C)C(=O)O)OCC1(C)C` (stereo partly drawn) [2-180, N-(((((4R)-4-((3-methoxy-3-oxopropyl)carbamoyl)-5,5-dimethyl-2-oxido-1,3,2-dioxaphosphinan-2-yl)oxy)methoxy)carbonyl)-S-pivaloyl-L-cysteine], for which the “PANK2−/− CoA (Fold Increase): fold increase in Coenzyme A (CoA) levels relative to controls” value was determined as 26.8 Fold Increase.
The value for `COC(=O)[C@H](C)N[P@@]1(=O)OCC(C)(C)[C@H](C(=O)NCCC(=O)OCc2ccncc2)O1` (single isomer, unassigned) [compound 18, methyl ((2R,4R)-5,5-dimethyl-2-oxido-4-((3-oxo-3-(pyridin-4-ylmethoxy)propyl)carbamoyl)-1,3,2-dioxaphosphinan-2-yl)-L-alaninate or methyl ((2S,4R)-5,5-dimethyl-2-oxido-4-((3-oxo-3-(pyridin-4-ylmethoxy)propyl)carbamoyl)-1,3,2-dioxaphosphinan-2-yl)-L-alaninate] was 2.06 Fold Increase; that for `COC(=O)CCNC(=O)[C@@H]1O[P@@](=O)(OCOC(=O)N[C@@H](CSC(=O)C(C)(C)C)C(=O)OCc2ccccc2)OCC1(C)C` [2-164, Benzyl N-(((((2S,4R)-4-((3-methoxy-3-oxopropyl)carbamoyl)-5,5-dimethyl-2-oxido-1,3,2-dioxaphosphinan-2-yl)oxy)methoxy)carbonyl)-S-pivaloyl-L-cysteinate] was 101.86 Fold Increase.
In the case of `COC(=O)CCNC(=O)[C@@H]1O[P@@](=O)(Oc2ccc(C#N)cc2)OCC1(C)C` [2-116, methyl 3-((2S,4R)-2-(1-cyanophenoxy)-5,5-dimethyl-2-oxido-1,3,2-dioxaphosphinane-4-carboxamido)propanoate], the “PANK2−/− CoA (Fold Increase): fold increase in Coenzyme A (CoA) levels relative to controls” value is 0.95 Fold Increase.
The value for `COC(=O)CCNC(=O)[C@@H]1O[P@](=O)(OCOC(=O)c2cc(C)nn2C)OCC1(C)C` [2-190, (((2R,4R)-4-((3-methoxy-3-oxopropyl)carbamoyl)-5,5-dimethyl-2-oxido-1,3,2-dioxaphosphinan-2-yl)oxy)methyl 1,3-dimethyl-1H-pyrazole-5-carboxylate] was 52.24 Fold Increase; that for `CC(C)(C)C(=O)OCOP1(=O)OCC(C)(C)[C@H](C(=O)NCCC(=O)OCc2ccncc2)O1` (stereo partly drawn) [Compound No. 101, (((4R)-5,5-dimethyl-2-oxido-4-((3-oxo-3-(pyridin-4-ylmethoxy)propyl)carbamoyl)-1,3,2-dioxaphosphinan-2-yl)oxy)methyl pivalate] was 81.66 Fold Increase.

Source of the values: patent US10364263B2, “Cyclic phosphates and cyclic phosphoramidates for the treatment of neurologic disorders” (Retrophin, Inc., priority 2015, dated 2019).
